Common to all, as to type: functional, tissue-based
Experiment [1] addresses Cannabinoid receptor 1 (Rattus norvegicus) (UniProt P20272). In words: Potency at CB1 receptor in rat brain by [35S]GTP-gamma-S binding assay at 0.1 mM.
For experiment [2] the target is unchanged. In words: Efficacy at CB1 receptor in rat brain by [35S]GTP-gamma-S binding assay at 0.1 mM (basal value set at 100%). (Binding of GTPγS marks nucleotide exchange on a G protein.)
Experiment [3] has the same target. In words: Efficacy at CB1 receptor in rat brain by [35S]GTPgammaS binding assay (basal value set at 100%).
The target of the next experiment is Cannabinoid receptor 1 (Rattus norvegicus, UniProt P20272). The experiment can be described thus: Potency at CB1 receptor in rat brain by [35S]GTP-gamma-S binding assay.
Sequence of Cannabinoid receptor 1 (P20272 whole entry): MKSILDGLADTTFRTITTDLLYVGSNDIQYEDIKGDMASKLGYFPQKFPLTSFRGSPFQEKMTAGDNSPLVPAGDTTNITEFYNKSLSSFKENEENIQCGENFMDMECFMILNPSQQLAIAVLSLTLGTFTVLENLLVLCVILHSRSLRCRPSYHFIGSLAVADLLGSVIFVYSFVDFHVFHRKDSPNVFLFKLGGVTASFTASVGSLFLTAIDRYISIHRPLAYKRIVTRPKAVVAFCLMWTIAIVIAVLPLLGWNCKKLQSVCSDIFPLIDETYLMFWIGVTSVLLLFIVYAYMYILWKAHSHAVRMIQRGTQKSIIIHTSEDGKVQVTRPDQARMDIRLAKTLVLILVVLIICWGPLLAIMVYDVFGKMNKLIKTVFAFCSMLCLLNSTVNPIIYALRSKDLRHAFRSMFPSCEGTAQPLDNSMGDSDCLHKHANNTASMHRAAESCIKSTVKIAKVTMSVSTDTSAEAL

The source made the active and inactive calls. The rule behind the calls is not given here.

Sequence of Cannabinoid receptor 1 (Rattus norvegicus) (P20272 whole entry): as above

`CCCCC/C=C\C/C=C\C/C=C\C/C=C\CC[C@@H](C)C(=O)OC(CF)CF`: in experiment [1], the “Log EC50” value is “inactive”. In addition, the Emax (as a rule, the greatest response seen or fitted, relative to the assay's reference) in experiment [2] is “inactive”.
As to `CCCCC/C=C\C/C=C\C/C=C\C/C=C\CC[C@@H](C)C(=O)OC(CO)CO`, in experiment [3], the maximum response (Emax) stood at 407%. Moreover, at Cannabinoid receptor 1, a half-maximal effect (EC50) was put at 10 µM.
For the molecule `CCCCC/C=C\C/C=C\C/C=C\C/C=C\CCCC(=O)OC(CO)CO`, in experiment [3], the maximum response (Emax) is 620%.
As to `CCCCC/C=C\C/C=C\C/C=C\C/C=C\CC[C@@H](C)C(=O)OC(CO)CF` (mixture of isomers), the maximal effect (Emax) in experiment [3] was found to be 168%. Also, on Cannabinoid receptor 1, the midpoint of the response, the EC50, lay at 15.8 µM.
In experiment [3], `CCCCC/C=C\C/C=C\C/C=C\C/C=C\CC[C@H](C)C(=O)OC(CO)CO` yielded an Emax of 227%. The EC50 (in general, the concentration that produces a half-maximal response) on Cannabinoid receptor 1 is 15.8 µM.

For the origin of these results see ChEMBL document CHEMBL1146982, “Alpha-methylated derivatives of 2-arachidonoyl glycerol: synthesis, CB1 receptor activity, and enzymatic stability” (Bioorg Med Chem Lett, 2006).
